From patent US6867305B2, “Synthesis of epothilones, intermediates thereto and analogues thereof” (Sloan-Kettering Institute for Cancer Research, priority 1996, dated 2005) come the findings set out here.

In data set [1] the test system is HCT-116 colon carcinoma xenograft. The experiment in a line: Human tumor xenograft in nude mice. Type of data set: in vivo. The note with it: for Therapeutic Effect Rank Order: HCT-116, i.v. infusion. The source says: Therapeutic efficacy of cancer chemotherapeutic agents varies with various factors including the tumor models used and the dosage of drug and schedules and routes of administration. […] In the present studies, we intended to compare the therapeutic effects of drugs near their maximal tolerated doses by measuring the extent of body-weight decreases and/or lethality.
(§1) Depending on the tumor type, treatment started on day 10 to day 21 when subcutaneous tumor size reached 35-200 mm^3, except otherwise indicated. Tumor size and body-weight were recorded every other day (Q2D) and, for humane reasons, the animals were sacrificed when tumor size reached ≧10% of body-weight. Each group, including untreated control, consisted of 3-5 animals unless otherwise indicated.
(§2) Athymic nude mice bearing the nu/nu gene were used for all human tumor xenografts. Outbred, Swiss-background mice were obtained from Charles River Laboratories. Male mice 8 weeks or older weighing 22 g and up were used for most experiments. The drug was administered via the tail vein for 6 hr.-i.v. infusion. Each individual mouse was confined in a perforated Falcon polypropylene tube restrainer for drug administration. Tumor volume was assessed by measuring length×width×height (or width) using a caliper. The programmable Harvard PHD2000 syringe pump (Harvard Apparatus) with multi-track was used for i.v. infusion. […] All animal studies were conducted in accordance with the guidelines of the National Institutes of Health “Guide for the Care and Use of Animals” and the protocol approved by the Memorial Sloan-Kettering Cancer Center's Institutional Animal Care and Use Committee. In keeping with the policy of this committee for the humane treatment of tumor-bearing animals, mice were euthanized when tumors reached ≧10% of their total body weight.
(§3) Human tumor cells (5×10^6) or tumor tissue (30-50 mg) were implanted s.c. flank in nu/nu mice (Charles River Laboratories, Wilmington, Mass.). When tumor grew to a specified size, treatment was started by every-other day×5 with 6 hr i.v.-infusion, unless otherwise indicated. Tumor volume was measured with calipers in three dimensions (length×width×height or width). Body-weight changes and lethality were monitored every other day.
Background: In xenograft studies the graft and the host belong to different species.

Data set [2] concerns K562 chronic myelocytic leukemia xenograft. The data set is described as follows: Human tumor xenograft in nude mice. It is filed as in vivo. Here is the method: FIG. 34 depicts tumor size in nude mice bearing human leukemia […] tumor following 6 mg/kg C-15-Aza-EpoB, Q2D×6 and 30 mg/kg dEpoF, Q2ED×6 (i.v. infusion […].). K562 tumor cells (1×10^7 in 0.2 mL) were inoculated to nude mice on day 0. Mice were treated with 6 mg/kg aza-EpoB, 6 h-i.v. infusion on days 20, 22, 24, 26, 28 and 30 (Δ, n=3). The same group of mice were then treated with 30 mg/kg dEpoF, 6 h-i.v. infusion on days 42, 44, 46, 48, 52, and 54 (Δ, n=3). […] The control mice (∘, n=3) received vehicle only.
K562 tumor cells (1×10^7, in 0.2 ml/mouse) were implanted s.c. on day 0. […] The control mice (∘, n=4) received vehicle, Cremophor-ethanol (1:1), only. The vertical bars indicate mean tumor size in mm^3±S.E.
as §1, §2, §3

Data set [3] deals with UL-3-B/Taxol. The data set is described as follows: cells. The note with it: Homo sapiens.
The test system of data set [4] is MX-1 mammary carcinoma xenograft.
The subject of data set [5] is CCRF-CEM leukemia xenograft. The note with it: for body-weight reduction on day 28: CCRF-CEM-bearing nude mice, 15-azaEpoB 6 mg/kg Q2D×6. The method, then: Nude mice bearing well established CCRF-CEM tumor xenografts (average tumor size about 400 mm^3) were treated with 30 mg/kg of dEpoB or with 6 mg/kg of 15-azaEpoB, 6 hr-i.v. infusion Q2D×6 as shown in FIG. 37.
as §1, §2, §3

For data set [6], the system named is HL-60 promyelocytic leukemia xenograft. The experiment in a line: Human tumor xenograft in nude mice. Type of data set: in vivo. Here is the method: as §1, §2, §3
Data set [7] has as its system HT-29 colon adenocarcinoma xenograft. The data set is described as follows: Human tumor xenograft in nude mice. It is filed as in vivo. Here is the method: as §1, §2, §3
Data set [8] relates to DC-3F hamster lung fibroblasts. The data set is described as follows: Tumor cell growth inhibition in vitro. Type of data set: cell-based. Here is the method:
(§4) The fresh medium containing each drug was replenished every 7-14 days. […] In each case ,the drug-exposed cells were resuspended in fresh media for a minimum of 4 days before the experiments for the cell-growth inhibition was carried out.
(§5) The cells were cultured at an initial density of 2-5×10^4 cells per ml. They were maintained in a 5% CO2-humidified atmosphere at 37° C. in RPMI mediun 1640 (GIBCO/BRL) containing penicillin (100 units/ml), streptomycin (100 μg/ml) (GIBCO/BRL), and 5% heat-inactivated fetal bovine serum. For solid tumor cells growing in a monolayer (such as MCF-7/Adr), cytotoxicitiy of the drug was determined in 96-well microtiter plates by using the sulforhodamine B method as described by Skehan et al (23) for measuring the cellular protein content. For cells that were grown in suspension (such as CCRF-CEM and its sublines), cytotoxicitiy was measured by using the 2,-3-bis(2-methoxy-4-nitro-5-sulfophenyl)-5carboxanilide)-2H terazodium hydroxide (XTT)-microculture tetrazonium method (24) in duplicate in 96-well microtiter plates. For both methods, the absorbance of each well was measured with a microplate reader (EL-340, Bio-Tek, Burlington, Vt.). Each run entailed six or seven concentrations of the tested drugs. Dose-effect relationship data were analyzed with the median-effect plot (25) by using a previously described computer program (26).

Data set [9] relates to MCF-7/Adr mammary xenograft. The data set is described as follows: Human tumor xenograft in nude mice. Type of data set: in vivo.
The subject of data set [10] is UL-3-B/Taxol.
Another data set concerns DC-3F/ADX. The experiment in a line: Tumor cell growth inhibition in vitro. Type of data set: cell-based, hamster. To be noted: for cross-resistance (fold of resistance vs parent cell line): DC-3F/ADX vs DC-3F; for IC50: DC-3F/ADX, read-out: IC50. Here is the method: as §4, §5
[11] abbreviates: K562, i.v. infusion (dEpoF vs 15-azaEpoB).
The mark [12] stands for this setting: CCRF-CEM, i.v. infusion, FIG. 5.
[13] abbreviates: HCT-116, dEpoB 30 mg/kg, Taxol 20 mg/kg, Q2Dx51x3, 6-hr i.v. infusion.
The mark [14] stands for this setting: HL-60, dEpoB 30 mg/kg, Taxol 20 mg/kg, Q2Dx5, 6-hr i.v. infusion.
Where [15] appears, read: HT-29, dEpoB 30 mg/kg, Taxol 15 mg/kg, Q2Dx6, 6-hr i.v. infusion.
Setting [16] is: K562, dEpoB 30 mg/kg, Taxol 20 mg/kg, Q2Dx5, 6-hr i.v. infusion.
[17] abbreviates: dEpoB 30 mg/kg, Taxol 24 mg/kg, Q2Dx5, 6-hr i.v. infusion.
Setting [18] is: CCRF/CEM, dEpoB 40 mg/kg, Taxol 20 mg/kg, Q2Dx4, 6-hr i.v. infusion.

Molecules are shown by their SMILES. In brackets after ≈: the same amount, converted by molar mass. Entries after “also recorded” stand apart in the source; their conditions may differ. Like-named read-outs stand apart in the source and are kept apart here.

One may read the IC50 as the concentration needed to halve the response being measured. Usually solubility stands for the dissolved amount per volume that the medium holds. For the compound `C/C1=C/C[C@@H](/C(C)=C/c2csc(CO)n2)OC(=O)C[C@H](O)C(C)(C)C(=O)[C@H](C)[C@@H](O)[C@@H](C)CCC1` [dEpoF, 12,13-Desoxyepothilone F], the “Therapeutic Effect Rank Order” value was “Taxol, CPT-11≈dEpoB, dEpoF” in data set [1]; “dEpoF>>>15-azaEpoB” in data set [2] (setting [11]); “dEpoF>>>15-azaEpoB” in data set [5] (setting [12]). For the same compound, in data set [2] (K562, aza-EpoB 6 mg/kg then dEpoF 30 mg/kg, n=3), the “tumor free mice on day 76” value was “all three mice were tumor free”. The “therapeutic effect on tumor growth” value in data set [2] (K562, dEpoF 30 mg/kg Q2D×6 in the same mice after aza-EpoB, tumor near 500 mm^3 (FIG. 34)) was “readily induced reduction in the size of the tumor to the point of remission; also recorded: The tumor mass eventually disappeared three weeks later”; in [4] (MX-1, dEpoF 15 mg/kg Q2D×5, 6 hr-i.v. infusion), “tumor growth was partially suppressed”. This compound returned an IC50 in the data set with UL-3-B/Taxol [3] of 6.7 nM. In addition, the solubility in the data set “physchem” is ~25 mg/mL (≈ 49.2 mM). In addition, the “tumor disappearance (tumor free mice)” value in [4] (MX-1, dEpoF 30 mg/kg Q2D×5, 6 hr-i.v. infusion) is recorded as “three out of five”. Besides, the “tumor free mice on day 28” value in data set [5] (CCRF-CEM, dEpoF 30 mg/kg, 6 hr-i.v. infusion Q2D×6) is reported as “one of three mice was tumor free”. Besides, the “body-weight reduction on day 28” value in data set [5] (dEpoF 30 mg/kg) was “about 10%”.

Turning to `C/C1=C/C[C@@H](/C(C)=C/c2csc(C)n2)OC(=O)C[C@H](O)C(C)(C)C(=O)[C@H](C)[C@@H](O)[C@@H](C)CCC1` [dEpoB, 12,13-desoxyepothilone B], the “Therapeutic Effect Rank Order” value is “Taxol, CPT-11≈dEpoB, dEpoF” in data set [1]; “Taxol≧ dEpoB” in data set [6] (HL-60, i.v. infusion); “Taxol>dEpoB” in data set [7] (HT-29, i.v. infusion); “dEpoB>>>VBL> Taxol> Adriamycin” in data set [2] (K562, i.v. infusion, FIG. 3 & 4); “dEpoB>Adriamycin>Taxol” in data set [4] (mouse, in vivo); “dEpoB>Camptothecin>Taxol>VBL, EpoB” in data set [4] (mouse, in vivo, ip). Also, the “Therapeutic Effect Rank Order” value in data set [9] (i.p., ref 19 (Table 5)) was “dEpoB>Camptothecin>Adriamycin>Taxol”; in [9] (i.v. infusion) it was “dEpoB>>VP-16, Taxol>VBL, Adriamycin”; in [5] (CCRF-CEM, i.v. infusion (dEpoB vs Taxol)), “dEpoB≈Taxol”. In addition, the “Lowest Average Tumor Size (T/C)” value came to 0 in data set [1] (setting [13]); 0.01 in data set [6] (setting [14]); 0.02 in data set [7] (setting [15]); 0 in data set [2] (setting [16]); 0 in data set [4] (mouse, in vivo); 0.11 in data set [9] (setting [17]). Also, the “Lowest Average Tumor Size (T/C)” value in data set [5] (setting [18]) was determined as 0. Also, the “Tumor Disappearance” value in data set [1] (setting [13]) is given as 1/2; in data set [6] (setting [14]), 2/3; in [7] (setting [15]), 0/3; in data set [2] (setting [16]) it was 5/5; in data set [4] (mouse, in vivo), 5/5; in [9] (setting [17]), 0/3. Also, in data set [5] (setting [18]), the “Tumor Disappearance” value was 2/2. Moreover, in data set [2] (K562, single course Q2D×3, dEpoB 30 mg/kg (FIG. 37)), the “therapeutic effect of single course” value is recorded as “disappearance of K562 xenografts for four weeks”. Further, the therapeutic effect entry in data set [2] (K562, dEpoB 30 mg/kg, Taxol 20 mg/kg 6 hr i.v. infusion, Adriamycin 3 mg/kg, vinblastine 2.5 mg/kg i.v., every other day from day 20 (FIG. 36)) is recorded as “Complete remission”. Moreover, in data set [2] (K562 tumor as large as 880 mm^3 after paclitaxel, then dEpoB 30 mg/kg (Q2D×3)×3), the “tumor size after treatment” value is “less than 20 mm^3”. Further, the half-maximal inhibitory concentration (IC50) in the data set with UL-3-B/Taxol [3] worked out at 7 nM; in data set [8], 2.5 nM; in data set [8] (Mesocricetus auratus, DC3F), 1.9 nM. Moreover, the solubility in the data set “physchem” is ~10 mg/mL (≈ 20.3 mM). For the same compound, the “tumor disappearance on day 22” value in [4] (MX-1, dEpoB 30 mg/kg Q2D×6 (day 10-20) then Q2D×5 (day 26-34)) is listed as “⅕”. Further, in [4] (MX-1, dEpoB 30 mg/kg Q2D×6 then Q2D×5), the “tumor disappearance on day 38” value is recorded as “⅖”. Moreover, in data set [4] (MX-1-bearing mice, after dEpoB second cycle), the “body-weight gain during day 36-40” value was “about 2 gm”. In addition, the “body-weight decrease on day 22” value in [4] (MX-1-bearing mice, dEpoB 30 mg/kg Q2D (day 10-20)) was “about 3.5 gm”. Further, in [4] (MX-1-bearing mice, dEpoB second cycle Q2D×5 (day 26-34)), the “body-weight drop on day 36” value is “about 4.1 gm”.

Regarding `C/C(=C\c1csc(C)n1)C1C[C@@H]2O[C@]2(C)CCC[C@H](C)[C@H](O)[C@@H](C)C(=O)C(C)(C)C(O)CC(=O)N1` (stereo partly shown) [aza-EpoB, aza-epothilone B], the “therapeutic effect on tumor growth” value in data set [2] (K562, aza-EpoB 6 mg/kg Q2D×6, 6 h-i.v. infusion (FIG. 34)) is given as “inhibited tumor growth but did not lead to a reduction in the size of the tumor”; in data set [2] (K562, aza-EpoB 6 mg/kg Q2D×6, 6 h-i.v. infusion (FIG. 34), listed as azaEpoB), “strongly suppressed tumor growth but did not shrink the tumor”; in data set [5] (CCRF-CEM, tumor about 400 mm^3, 15-azaEpoB 6 mg/kg, 6 hr-i.v. infusion Q2D×6) it was “Moderate suppression of tumor growth”. The “Therapeutic Effect Rank Order” value in data set [2] (setting [11]) is “dEpoF>>>15-azaEpoB”; in data set [4] (mouse, in vivo, iv) it was “dEpoB>>>15-azaEpoB”; in [5] (setting [12]) it was “dEpoF>>>15-azaEpoB”. In addition, the IC50 is 15 nM with UL-3-B/Taxol [3]; 2380 nM with DC-3F/ADX (listed as 15-aza-EpoB); 288 nM with DC-3F/ADX; 8.7 nM in data set [8] (Mesocricetus auratus, DC3F, read-out: IC50). Further, the “cross-resistance (fold of resistance vs parent cell line)” value with UL-3-B/Taxol [10] is 0.015[12.5] x; in the data set on DC-3F/ADX, 33.1 x; with DC-3F/ADX (listed as 15-aza-EpoB), 274 x. Besides, the “mice died of toxicity on day 22” value in [4] (MX-1-bearing mice, azaEpoB 6 mg/kg) is “one out of five”. In addition, the “body-weight reduction on day 28” value in [5] (dEpoF 30 mg/kg) is “about 10%”.
